In patent US4008219A, “4-Benzazonine derivatives and process for preparation thereof” (Nihon Iyakuhin Kogyo Co., Ltd., priority 1973, dated 1977):

Tests used:
guinea pigs [1] = test: Antitussive effect, Chemical Stimulus Method (SO2 gas); format: in vivo, guinea pig; conditions: guinea pigs, SO2 gas
Text: (§1) Results of comparative tests where the medicinal effects of compounds of this invention were compared with those of known compounds such as pentazocine and codeine phosphate by employing mice and guinea pigs as the test animals are shown in the following Tables I and II.
(§2) Comparison of Antitusive Effects
2) Takagi et al modification [Journal of Pharmaceutical Society of Japan,
80, 1497 (1960)] of the test method of H. Friebel, C. Reichle and A. V.
Gravenitz [Archiv Fur experimentalle Phathologie und Pharmakologie,
Naunyn-Schmiede-berg's, 224,384 (1955)], in which the test compound was
hypodermically injected into guinea pigs, 30 minutes after the injection
the quinea pigs were put into a desiccator filled with SO2 gas and
kept in the desiccator for 1 minute, then the guinea pigs were put into
another vessel and the degree of coughing was examined.

Acute Toxicity = conditions: in vivo; mouse, intravenous injection
Protocol: (§3) Tested Animal: mice of the ddN-series, .male., 20 ± 1 experimental
(§4) Conditions: temperature of 24 ± 1° C., relative humidity of 65

mice of the ddN-series [2] = test: Analgesic test, Pressure Stimulus Method; format: in vivo, mouse; conditions: hypodermic injection, comparative value, pentazocine 1.0
Protocol: as §1
Pressure Stimulus Method^3)
R (hypodermic injection)
as §3, §4
^3) A. F. Green, P. A. Yound and E. I. Godfrey; British Journal of
Pharmacology and Chemotherapy, 6, 572 (1951)

guinea pigs [3] = test: Antitussive effect, Mechanical Stimulus Method; format: in vivo, guinea pig
Text: as §1, §2
Mechanical Stimulus Method^1)
1) Takagi et al modification [Journal of the Pharmaceutical Society of
Japan, 80, 1497 (1960)] of the test method of H. Konzett and E. Rothlin
[Experientia, 10, 472 (1954)], in which urethane was hypodermically
injected (15 mg/Kg) into guinea pigs and swine hairs were inserted into
the trachea to impart stimulus.

mice of the ddN-series [4] = test: Analgesic test, Heat Stimulus Method (Hot Plate Method); format: in vivo, mouse; parameters: reference not given here; conditions: hypodermic injection, comparative value, scale not given
Protocol: as §1
Heat Stimulus Method^2)
as §3, §4
^2) G. Woolfe and A. D. Mac Donald; Journal of Pharmacology and […]

mice of the ddN-series [5] = test: Analgesic test, Chemical Stimulus Method (Writhing Method); format: in vivo, mouse; parameters: scale not given here; conditions: interabdominal injection, comparative value, scale not given
Protocol: as §1
Chemical Stimulus Method^1)
(interabdominal injection)
as §3, §4
^1) R. Koster, M. Anderson and E. J. De Beer, Federation Proceedings, […]

For `C=CCN1CCC2CC(C1)C(O)c1ccccc12` (stereo not drawn) [R=H, R1=H, R2=H, CH2R3=CH2CHCH2, R4=OH, 4-allyl-2,3,4,5,6,7-hexahydro-1,6-methano-1H-4-benzazonin-7-ol], the ED50 (guinea pigs [1]; Cavia porcellus, sc, 0.5 h, hypodermic injection, 1 minute, 30 minutes after injection, read-out: ED50, Chemical Stimulus Method (antitussive)) was 15.3 mg/kg, the “Effect Ratio to Codeine Phosphate, Chemical Stimulus Method” value (guinea pigs [1]; codeine phosphate = 100) was 86.7 and the LD50 (Acute Toxicity) was 58 mg/kg. The “Pressure Stimulus Method” value (mice of the ddN-series [2]) was 1.4, the ED50 (guinea pigs [3]; Cavia porcellus, swine hairs inserted into the trachea) was 18.9 mg/kg and the “Effect Ratio to Codeine Phosphate, Mechanical Stimulus Method” value (guinea pigs [3]; codeine phosphate = 100) was 76.6. For the same molecule, the solubility in water (Solubility in water) was “water soluble”, the “Heat Stimulus Method (Hot Plate Method)” value (mice of the ddN-series [4]) was 1.4 and the “Chemical Stimulus Method (Writhing Method)” value (mice of the ddN-series [5]) was 1.2.
